For experiment [1], the target named is T1, Gastrin/cholecystokinin type B receptor (Homo sapiens, UniProt P32239).
T1 sequence (P32239 whole entry): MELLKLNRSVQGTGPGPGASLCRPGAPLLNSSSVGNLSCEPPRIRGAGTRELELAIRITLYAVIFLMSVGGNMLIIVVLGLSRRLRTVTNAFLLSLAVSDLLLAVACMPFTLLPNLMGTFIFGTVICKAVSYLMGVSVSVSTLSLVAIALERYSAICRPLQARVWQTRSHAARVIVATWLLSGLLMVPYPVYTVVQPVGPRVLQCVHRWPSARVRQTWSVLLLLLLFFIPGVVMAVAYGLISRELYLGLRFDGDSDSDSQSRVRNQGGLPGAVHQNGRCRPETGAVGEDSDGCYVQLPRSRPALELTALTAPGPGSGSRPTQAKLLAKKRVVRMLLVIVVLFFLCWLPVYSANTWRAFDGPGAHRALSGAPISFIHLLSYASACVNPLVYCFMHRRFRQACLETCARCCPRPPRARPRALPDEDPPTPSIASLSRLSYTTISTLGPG

For experiment [2], the target named is T2, 5-hydroxytryptamine receptor 2A (Homo sapiens, UniProt P28223). Type of experiment: functional, cell-based.
T2 sequence (P28223 whole entry): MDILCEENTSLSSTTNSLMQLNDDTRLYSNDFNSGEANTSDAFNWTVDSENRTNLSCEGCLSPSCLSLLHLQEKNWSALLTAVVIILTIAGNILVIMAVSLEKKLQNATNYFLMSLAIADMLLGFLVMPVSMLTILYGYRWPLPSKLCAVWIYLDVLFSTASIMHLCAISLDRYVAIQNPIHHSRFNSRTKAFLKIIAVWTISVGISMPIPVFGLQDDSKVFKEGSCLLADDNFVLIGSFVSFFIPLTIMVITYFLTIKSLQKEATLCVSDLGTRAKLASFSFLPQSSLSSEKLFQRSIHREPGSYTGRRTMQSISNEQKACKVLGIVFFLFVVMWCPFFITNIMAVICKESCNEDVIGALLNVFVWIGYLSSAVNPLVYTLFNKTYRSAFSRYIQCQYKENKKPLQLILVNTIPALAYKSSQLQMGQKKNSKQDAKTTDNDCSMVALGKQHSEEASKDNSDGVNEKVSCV
Experiment [3] addresses T3, Type-1 angiotensin II receptor (Homo sapiens, UniProt P30556).
T3 sequence (P30556 whole entry): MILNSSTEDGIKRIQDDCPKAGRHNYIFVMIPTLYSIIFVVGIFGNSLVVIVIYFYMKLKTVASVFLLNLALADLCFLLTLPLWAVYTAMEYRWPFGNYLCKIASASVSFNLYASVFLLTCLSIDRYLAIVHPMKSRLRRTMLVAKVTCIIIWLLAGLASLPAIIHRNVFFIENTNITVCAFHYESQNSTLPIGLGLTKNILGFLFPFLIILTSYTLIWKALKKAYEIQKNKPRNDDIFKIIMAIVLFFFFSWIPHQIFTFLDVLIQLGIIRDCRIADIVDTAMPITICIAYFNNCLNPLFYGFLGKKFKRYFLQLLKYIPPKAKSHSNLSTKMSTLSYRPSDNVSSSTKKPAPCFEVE

For experiment [4], the target named is T4, Prostaglandin G/H synthase 1 (Rattus norvegicus, UniProt Q63921).
T4 sequence (Q63921 whole entry): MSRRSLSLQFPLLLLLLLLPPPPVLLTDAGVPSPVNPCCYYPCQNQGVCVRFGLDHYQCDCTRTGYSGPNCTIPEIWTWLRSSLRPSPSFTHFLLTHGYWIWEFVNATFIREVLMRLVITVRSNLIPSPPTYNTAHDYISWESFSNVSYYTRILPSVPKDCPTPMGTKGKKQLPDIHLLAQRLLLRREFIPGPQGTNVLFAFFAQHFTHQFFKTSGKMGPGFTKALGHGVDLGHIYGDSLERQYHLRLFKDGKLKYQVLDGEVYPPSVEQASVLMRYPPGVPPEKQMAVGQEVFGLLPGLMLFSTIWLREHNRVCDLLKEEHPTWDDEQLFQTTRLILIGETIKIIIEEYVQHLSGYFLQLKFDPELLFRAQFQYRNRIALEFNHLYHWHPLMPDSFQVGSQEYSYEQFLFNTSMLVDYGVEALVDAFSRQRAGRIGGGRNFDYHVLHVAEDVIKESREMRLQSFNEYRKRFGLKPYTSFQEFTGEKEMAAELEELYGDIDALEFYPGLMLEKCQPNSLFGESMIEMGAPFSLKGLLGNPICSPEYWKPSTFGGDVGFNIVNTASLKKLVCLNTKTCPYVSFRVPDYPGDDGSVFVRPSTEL
In kind it is functional.

Experiment [5] concerns the target T5, Progesterone receptor (Homo sapiens, UniProt P06401).
T5 sequence (P06401 whole entry): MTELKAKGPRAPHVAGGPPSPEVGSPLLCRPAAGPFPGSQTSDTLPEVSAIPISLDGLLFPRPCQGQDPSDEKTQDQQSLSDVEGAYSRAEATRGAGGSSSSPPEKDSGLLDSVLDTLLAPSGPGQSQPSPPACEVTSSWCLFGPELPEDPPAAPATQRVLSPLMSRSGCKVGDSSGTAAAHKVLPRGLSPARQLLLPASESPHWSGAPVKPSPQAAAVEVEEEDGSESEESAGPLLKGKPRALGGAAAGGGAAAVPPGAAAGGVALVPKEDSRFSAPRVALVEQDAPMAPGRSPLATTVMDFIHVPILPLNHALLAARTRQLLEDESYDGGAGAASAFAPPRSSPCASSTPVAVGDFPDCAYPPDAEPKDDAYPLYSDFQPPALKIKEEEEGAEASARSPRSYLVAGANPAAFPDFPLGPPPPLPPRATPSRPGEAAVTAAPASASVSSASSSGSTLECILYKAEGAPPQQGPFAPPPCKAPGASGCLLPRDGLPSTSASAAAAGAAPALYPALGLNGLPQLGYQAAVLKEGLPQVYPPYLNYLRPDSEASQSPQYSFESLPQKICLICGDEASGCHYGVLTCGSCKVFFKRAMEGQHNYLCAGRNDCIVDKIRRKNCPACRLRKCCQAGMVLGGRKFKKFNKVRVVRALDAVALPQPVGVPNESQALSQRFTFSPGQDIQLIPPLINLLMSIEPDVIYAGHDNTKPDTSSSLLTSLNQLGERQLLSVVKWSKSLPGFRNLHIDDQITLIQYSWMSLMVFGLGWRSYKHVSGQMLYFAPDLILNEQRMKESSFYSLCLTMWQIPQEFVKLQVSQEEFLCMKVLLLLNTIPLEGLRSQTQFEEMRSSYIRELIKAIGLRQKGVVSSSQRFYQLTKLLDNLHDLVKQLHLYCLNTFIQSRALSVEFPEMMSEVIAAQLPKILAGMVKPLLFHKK
In kind it is functional.

The target of a further experiment is T6, Adenosine receptor A3 (Homo sapiens, UniProt P0DMS8).
T6 sequence (P0DMS8 whole entry): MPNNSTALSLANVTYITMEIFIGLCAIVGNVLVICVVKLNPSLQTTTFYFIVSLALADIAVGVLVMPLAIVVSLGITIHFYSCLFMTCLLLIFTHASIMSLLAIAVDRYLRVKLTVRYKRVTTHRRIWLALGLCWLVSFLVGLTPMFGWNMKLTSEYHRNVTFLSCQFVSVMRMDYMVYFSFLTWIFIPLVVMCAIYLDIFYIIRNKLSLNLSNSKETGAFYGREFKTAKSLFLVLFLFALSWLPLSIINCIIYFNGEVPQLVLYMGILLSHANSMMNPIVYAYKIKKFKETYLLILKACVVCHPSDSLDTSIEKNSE

Experiment [6] addresses T5, Progesterone receptor. In kind it is functional. The source holds these as a separate data set.
In experiment [7] the target is T2, 5-hydroxytryptamine receptor 2A. In kind it is functional, cell-based. This is another data set of the same source.
In experiment [8] the target is Voltage-dependent L-type calcium channel subunit alpha-1C (Rattus norvegicus, UniProt P22002). In kind it is functional.
Chain of Voltage-dependent L-type calcium channel subunit alpha-1C (P22002 whole entry): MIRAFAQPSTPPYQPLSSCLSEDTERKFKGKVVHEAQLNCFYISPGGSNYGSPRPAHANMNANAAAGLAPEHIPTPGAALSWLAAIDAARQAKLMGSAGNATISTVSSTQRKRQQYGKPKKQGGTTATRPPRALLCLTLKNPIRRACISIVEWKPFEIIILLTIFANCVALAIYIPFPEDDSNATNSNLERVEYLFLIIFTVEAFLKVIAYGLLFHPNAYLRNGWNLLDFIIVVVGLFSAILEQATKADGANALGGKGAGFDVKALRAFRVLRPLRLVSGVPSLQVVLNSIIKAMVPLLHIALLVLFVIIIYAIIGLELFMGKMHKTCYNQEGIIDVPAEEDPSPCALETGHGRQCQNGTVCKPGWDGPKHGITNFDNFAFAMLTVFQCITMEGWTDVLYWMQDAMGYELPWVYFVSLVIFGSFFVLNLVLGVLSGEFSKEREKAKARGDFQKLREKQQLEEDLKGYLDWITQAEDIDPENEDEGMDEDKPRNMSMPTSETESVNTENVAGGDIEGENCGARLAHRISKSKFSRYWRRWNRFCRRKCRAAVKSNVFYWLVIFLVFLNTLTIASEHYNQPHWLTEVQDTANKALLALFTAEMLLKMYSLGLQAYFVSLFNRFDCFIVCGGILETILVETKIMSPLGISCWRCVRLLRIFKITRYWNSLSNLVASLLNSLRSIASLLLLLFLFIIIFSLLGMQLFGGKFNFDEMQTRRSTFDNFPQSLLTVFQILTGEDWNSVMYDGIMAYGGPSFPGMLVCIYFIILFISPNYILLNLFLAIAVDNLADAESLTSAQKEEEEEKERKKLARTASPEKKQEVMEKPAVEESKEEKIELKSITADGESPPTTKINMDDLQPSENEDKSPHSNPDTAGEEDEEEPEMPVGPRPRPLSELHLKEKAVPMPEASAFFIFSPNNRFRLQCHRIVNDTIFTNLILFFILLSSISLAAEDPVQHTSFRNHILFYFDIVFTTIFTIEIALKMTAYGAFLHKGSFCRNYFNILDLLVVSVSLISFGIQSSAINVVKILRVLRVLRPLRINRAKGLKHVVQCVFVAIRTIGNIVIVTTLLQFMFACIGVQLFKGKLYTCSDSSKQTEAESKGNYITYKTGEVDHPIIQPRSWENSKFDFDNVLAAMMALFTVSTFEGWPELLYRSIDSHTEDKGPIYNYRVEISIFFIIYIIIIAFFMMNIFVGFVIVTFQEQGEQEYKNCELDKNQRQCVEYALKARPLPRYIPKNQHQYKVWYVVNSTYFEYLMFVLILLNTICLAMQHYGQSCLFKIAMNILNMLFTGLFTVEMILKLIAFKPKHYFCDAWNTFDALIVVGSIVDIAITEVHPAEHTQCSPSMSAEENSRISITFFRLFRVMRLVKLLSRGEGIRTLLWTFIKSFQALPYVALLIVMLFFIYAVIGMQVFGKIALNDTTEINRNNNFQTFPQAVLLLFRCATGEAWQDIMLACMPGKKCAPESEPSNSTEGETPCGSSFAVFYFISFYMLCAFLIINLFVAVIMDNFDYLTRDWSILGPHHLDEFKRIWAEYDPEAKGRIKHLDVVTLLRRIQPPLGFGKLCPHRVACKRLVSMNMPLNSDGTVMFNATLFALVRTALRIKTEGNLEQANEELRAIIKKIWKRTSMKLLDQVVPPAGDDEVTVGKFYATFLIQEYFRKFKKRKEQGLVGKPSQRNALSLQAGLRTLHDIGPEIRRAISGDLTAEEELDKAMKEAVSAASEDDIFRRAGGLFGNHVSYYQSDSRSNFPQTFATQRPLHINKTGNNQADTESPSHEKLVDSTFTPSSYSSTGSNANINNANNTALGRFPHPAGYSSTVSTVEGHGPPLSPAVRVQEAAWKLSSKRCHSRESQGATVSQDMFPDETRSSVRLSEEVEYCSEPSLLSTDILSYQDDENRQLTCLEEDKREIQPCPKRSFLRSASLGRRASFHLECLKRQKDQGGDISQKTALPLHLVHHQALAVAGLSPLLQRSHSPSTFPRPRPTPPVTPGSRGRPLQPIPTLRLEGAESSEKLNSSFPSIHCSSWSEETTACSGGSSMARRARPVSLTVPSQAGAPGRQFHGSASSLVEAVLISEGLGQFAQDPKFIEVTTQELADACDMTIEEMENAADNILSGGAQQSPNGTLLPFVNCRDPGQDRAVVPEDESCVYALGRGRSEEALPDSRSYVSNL
Note: assay procedure not described here.

Turning to `COc1ccc(-c2ccc3cc(C(=O)O)ccc3c2)cc1C12CC3CC(CC(C3)C1)C2`, the concentration at half-maximal activity (AC50) (in experiment [1]; in [2]; in experiment [3]; in experiment [4]; on Progesterone receptor [5]; at Adenosine receptor A3) was over 30 µM in each case. In addition, the AC50 on Progesterone receptor [6] is 4.2 µM; in [7], over 30 µM; in experiment [8] it was 1.5 µM.
Consider `COc1ccccc1N1CCN(CCCNc2cc(=O)n(C)c(=O)n2C)CC1`, for which the AC50 (in experiment [1]; in experiment [2]; in experiment [3]; in [4]; on Progesterone receptor [5]; at Adenosine receptor A3) was over 30 µM in each case. For the same molecule, the AC50 (on Progesterone receptor [6]; in [7]; in experiment [8]) was over 30 µM in each case.
For `CC(C)(C)C(=O)Oc1ccc(S(=O)(=O)Nc2ccccc2C(=O)NCC(=O)O)cc1`, the AC50 (in experiment [1]; in [2]; in experiment [3]; in [4]; on Progesterone receptor [5]; at Adenosine receptor A3) was over 30 µM in each case. The AC50 (on Progesterone receptor [6]; in [7]; in [8]) was over 30 µM throughout.
With `NCC(=O)CCC(=O)O` [AMINOLEVULINIC ACID], the concentration at half-maximal activity (AC50) (in experiment [1]; in experiment [2]; in experiment [3]; in experiment [4]; at Progesterone receptor [5]; at Adenosine receptor A3) was over 30 µM throughout. Besides, the AC50 (at Progesterone receptor [6]; in experiment [7]) was over 30 µM throughout.
Take `CO/N=C(\C(=O)N[C@@H]1C(=O)N2C(C(=O)O)=C(CSc3nnnn3C)CS[C@H]12)c1csc(N)n1` [CEFMENOXIME]: the concentration at half-maximal activity (AC50) (in [1]; in experiment [2]; in [3]; in experiment [4]; on Progesterone receptor [5]; on Adenosine receptor A3) was over 30 µM throughout. The AC50 is 1.8 µM on Progesterone receptor [6] and over 30 µM in experiment [7].
On to `CC(=O)OCC(=O)[C@@]12N=C(C)O[C@@H]1C[C@H]1[C@@H]3CCC4=CC(=O)C=C[C@]4(C)[C@H]3[C@@H](O)C[C@@]12C` [DEFLAZACORT], for which the AC50 in [1] was over 30 µM; in experiment [2], over 30 µM; in experiment [3] it was over 30 µM; in experiment [4], over 30 µM; at Progesterone receptor [5], 3.7 µM; on Adenosine receptor A3, over 30 µM. In addition, the AC50 in experiment [7] and in experiment [8] was over 30 µM each time.
With `COc1ccc(CCN(C)CCCC(C#N)(c2cc(OC)c(OC)c(OC)c2)C(C)C)cc1OC` (configuration not stated) [GALLOPAMIL], the half-maximal activity concentration (AC50) was over 30 µM in experiment [1]; 3.6 µM in experiment [2]; over 30 µM in experiment [3]; over 30 µM in [4]; over 30 µM at Progesterone receptor [5]; over 30 µM at Adenosine receptor A3. Moreover, the AC50 in [7] was over 30 µM.
Turning to `CC(C)OC(=O)CCC/C=C\C[C@@H]1[C@@H](CC[C@@H](O)CCc2ccccc2)[C@H](O)C[C@@H]1O` [LATANOPROST], the AC50 (in [1]; in experiment [2]; in [3]; in experiment [4]; on Progesterone receptor [5]; at Adenosine receptor A3) was over 30 µM each time. The half-maximal activity concentration (AC50) (at Progesterone receptor [6]; in experiment [7]) was over 30 µM each time.
As to `CCC1(CC)C(=O)NCC(C)C1=O` (configuration not stated) [METHYPRYLON], the AC50 (in experiment [1]; in experiment [2]; in [3]; in experiment [4]; on Progesterone receptor [5]; at Adenosine receptor A3) was over 30 µM in each case. Besides, the AC50 (at Progesterone receptor [6]; in experiment [7]) was over 30 µM in each case.
Turning to `Clc1ccc(CCCOCCCN2CCCCC2)cc1` [PITOLISANT], the concentration at half-maximal activity (AC50) (in experiment [1]; in experiment [2]; in experiment [3]; in experiment [4]; at Progesterone receptor [5]; on Adenosine receptor A3) was over 30 µM each time. Also, the concentration at half-maximal activity (AC50) (at Progesterone receptor [6]; in experiment [7]) was over 30 µM each time.
`CN1CCC(=C2c3ccccc3CCc3sccc32)CC1` [PIZOTYLINE]: the AC50 is over 30 µM in [1]; 0.0379 µM in [2]; over 30 µM in [3]; over 30 µM in experiment [4]; over 30 µM at Adenosine receptor A3; over 30 µM in experiment [7]. For the same molecule, the AC50 in [8] was 20.1 µM.
As to `Cc1ccc(-n2nccn2)c(C(=O)N2CCN(c3nc4cc(Cl)ccc4o3)CC[C@H]2C)c1` [SUVOREXANT], the AC50 in [1] was over 30 µM; in experiment [2], over 30 µM; in experiment [3], over 30 µM; in experiment [4], over 30 µM; at Progesterone receptor [5], over 30 µM; at Adenosine receptor A3, over 10 µM. The half-maximal activity concentration (AC50) (at Progesterone receptor [6]; in experiment [7]) was over 30 µM in each case.
`CN1C(=O)C(O)N=C(c2ccccc2)c2cc(Cl)ccc21` (configuration not stated) [TEMAZEPAM]: the AC50 (in [1]; in experiment [2]; in [3]; in [4]; on Adenosine receptor A3; in [7]) was over 30 µM throughout. The AC50 in experiment [8] is over 10 µM.
Consider `O=C(NCCNCC(O)COc1ccc(O)cc1)N1CCOCC1` (configuration not stated) [XAMOTEROL], for which the AC50 (in experiment [1]; in experiment [2]; in experiment [3]; in [4]; at Progesterone receptor [5]; at Adenosine receptor A3) was over 30 µM in each case. The AC50 (on Progesterone receptor [6]; in [7]) was over 30 µM throughout.

By AC50 is commonly meant the concentration at which the activity in the assay is half-maximal.

(Values after ChEMBL document CHEMBL5291721, “A preclinical secondary pharmacology resource illuminates target-adverse drug reaction associations of marketed drugs” (Nat Commun, 2023).)
